Test results from the supplement of paper PMC4862054.

Tests used:
HCC1143 [1] = conditions: 72 h
Procedure, shortened: (§1)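 To measure viability, fluorescence at 560/590 nm was read after 2.5 µl CellTiter-Blue had been added for 2 h at 37 °C. Cells from breast cancer lines had been seeded in 20 µl suspension onto 384-well plates pre-loaded with compound dissolved in 5 µl medium and kept for 72 h. EC50 comes from a fitted percent-inhibition dose-response curve censored at the highest concentration, after per-plate normalisation to vehicle and a positive kill control, Z'-factor checks, and removal of rows with zero drug sensitivity score.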

MDA-MB-231 [2] = conditions: 72 h
Procedure, shortened: as §1

Hs578T [3] = conditions: 72 h
Procedure, shortened: as §1

HCC1937 [4] = conditions: 72 h
Procedure, shortened: as §1

MDA-MB-436 [5] = conditions: 72 h
Procedure, shortened: as §1

MDA-MB-468 [6] = conditions: 72 h
Procedure, shortened: as §1

HCC1599 [7] = conditions: 72 h
Procedure, shortened: as §1

BT-549 [8] = conditions: 72 h
Procedure, shortened: as §1

CAL-120 [9] = conditions: 72 h
Procedure, shortened: as §1

SK-BR-3 [10] = conditions: 72 h
Procedure, shortened: as §1

MFM-223 [11] = conditions: 72 h
Procedure, shortened: as §1

MDA-MB-231 [12] = assay: normalised viability (% of control), CellTiter-Blue; higher = more viable cells (about 100 = DMSO control); conditions: incubation time: 72 h
Procedure, shortened: (§2)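 Vehicle (100) and a positive kill control (0) anchored the normalisation of each plate, and Z'-factor was used for quality control. Breast cancer cell lines in 20 µl suspension were incubated 72 h over compound in 5 µl medium in 384-well plates, followed by CellTiter-Blue at 560/590 nm. The value is normalised viability at a single listed concentration of the series.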

MDA-MB-468 [13] = assay: as above; conditions: incubation time: 72 h
Procedure, shortened: as §2

BT-549 [14] = assay: as above; conditions: incubation time: 72 h
Procedure, shortened: as §2

DU-4475 = conditions: 72 h
Procedure, shortened: (§3)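 For viability and cell death testing, 384-well plates carried compound at 5 concentrations in 10-fold steps over a compound-specific 10,000-fold range, and breast cancer cell lines were seeded in 20 µl suspension. After 72 h incubation, cell death was read by CellTox Green fluorescence (485/520 nm) before viability was read by CellTiter-Glo luminescence. EC50 was fitted from the dose-response curves and censored at the top concentration. Normalisation on each plate was to 0.1 % DMSO and a positive kill control.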

HCC1143 [15] = conditions: 72 h; remark: listed apart in the source
Procedure, shortened: as §3

HDQ-P1 = conditions: 72 h
Procedure, shortened: as §3

MDA-MB-231 [16] = conditions: 72 h; remark: listed apart in the source
Procedure, shortened: as §3

Hs578T [17] = conditions: 72 h; remark: listed apart in the source
Procedure, shortened: as §3

HCC1937 [18] = conditions: 72 h; remark: listed apart in the source
Procedure, shortened: as §3

CAL-51 = conditions: 72 h
Procedure, shortened: as §3

BT-474 = conditions: 72 h
Procedure, shortened: as §3

MDA-MB-436 [19] = conditions: 72 h; remark: listed apart in the source
Procedure, shortened: as §3

MDA-MB-468 [20] = conditions: 72 h; remark: listed apart in the source
Procedure, shortened: as §3

HCC1599 [21] = conditions: 72 h; remark: listed apart in the source
Procedure, shortened: as §3

MDA-MB-453 = conditions: 72 h
Procedure, shortened: as §3

CAL-120 [22] = conditions: 72 h; remark: listed apart in the source
Procedure, shortened: as §3

MCF-10A = conditions: 72 h
Procedure, shortened: as §3

CAL-148 = conditions: 72 h
Procedure, shortened: as §3

SK-BR-3 [23] = conditions: 72 h; remark: listed apart in the source
Procedure, shortened: as §3

CAL-85-1 = conditions: 72 h
Procedure, shortened: as §3

MFM-223 [24] = conditions: 72 h; remark: listed apart in the source
Procedure, shortened: as §3

Row | Structure (SMILES) | EC50, CellTiter-Blue viability (HCC1143 [1]) [nM] | EC50, CellTiter-Blue viability (MDA-MB-231 [2]) [nM] | EC50, CellTiter-Blue viability (Hs578T [3]) [nM] | EC50, CellTiter-Blue viability (HCC1937 [4]) [nM] | EC50, CellTiter-Blue viability (MDA-MB-436 [5]) [nM] | normalised viability (MDA-MB-231 [12]; 10 nM) [%] | normalised viability (MDA-MB-231 [12]; 1000 nM) [%] | normalised viability (MDA-MB-231 [12]; 10000 nM) [%] | normalised viability (MDA-MB-468 [13]; 10 nM) [%] | normalised viability (MDA-MB-468 [13]; 1000 nM) [%] | normalised viability (MDA-MB-468 [13]; 10000 nM) [%] | normalised viability (BT-549 [14]; 10 nM) [%] | normalised viability (BT-549 [14]; 1000 nM) [%] | normalised viability (BT-549 [14]; 10000 nM) [%] | EC50, CellTiter-Glo (CAL-51) [nM] | EC50, CellTiter-Glo (MDA-MB-468 [20]) [nM] | EC50, CellTiter-Glo (MDA-MB-453) [nM] | EC50, CellTiter-Glo (CAL-148) [nM] | EC50, CellTiter-Glo (SK-BR-3 [23]) [nM] | EC50, CellTiter-Glo (CAL-85-1) [nM] | further results
1 | COC1=C2C[C@@H](C)C[C@H](OC)[C@H](O)[C@@H](C)/C=C(\C)[C@H](OC(N)=O)[C@@H](OC)/C=C\C=C(/C)C(=O)NC(=CC1=O)C2=O [Geldanamycin] | 36.6 | 63.1 | 90.5 | 47.1 | 40.9 | 102 | 15.3 | 4.86 | 99 | 11.2 | 8.18 | 89.7 | 18 | 15.9 | 3480 | 4130 | 3390 | 7190 | 1820 | 2680 | EC50, CellTiter-Blue viability (MDA-MB-468 [6]): 64.7 nM; EC50, CellTiter-Blue viability (HCC1599 [7]): 270 nM; EC50, CellTiter-Blue viability (BT-549 [8]): 46.8 nM; EC50, CellTiter-Blue viability (CAL-120 [9]): 38.1 nM; EC50, CellTiter-Blue viability (SK-BR-3 [10]): 46.8 nM; EC50, CellTiter-Blue viability (MFM-223 [11]): 90 nM; EC50, CellTiter-Glo (DU-4475): 2470 nM; EC50, CellTiter-Glo (HCC1143 [15]): 6310 nM; EC50, CellTiter-Glo (HDQ-P1): 3910 nM; EC50, CellTiter-Glo (MDA-MB-231 [16]): 3390 nM; EC50, CellTiter-Glo (Hs578T [17]): 5350 nM; EC50, CellTiter-Glo (HCC1937 [18]): 2130 nM; EC50, CellTiter-Glo (BT-474): 4080 nM; EC50, CellTiter-Glo (MDA-MB-436 [19]): 1050 nM; EC50, CellTiter-Glo (HCC1599 [21]): 5810 nM; EC50, CellTiter-Glo (CAL-120 [22]): 6700 nM; EC50, CellTiter-Glo (MCF-10A): 4380 nM; EC50, CellTiter-Glo (MFM-223 [24]): 666 nM
2 | COC1=CC(c2cc3ccccc3[nH]2)=N/C1=C\c1[nH]c(C)cc1C [Obatoclax] | 171 | 73.2 | 162 | 22.4 | 99.1 | 77 | 11.4 | 3.22 | 85 | 29.5 | 31.7 | 78.7 | 30.3 | 17.7 | 3920 | 664 | 2620 |  | > 10000 | 126 | EC50, CellTiter-Blue viability (MDA-MB-468 [6]): 105 nM; EC50, CellTiter-Blue viability (HCC1599 [7]): 678 nM; EC50, CellTiter-Blue viability (BT-549 [8]): 192 nM; EC50, CellTiter-Blue viability (CAL-120 [9]): 25.9 nM; EC50, CellTiter-Blue viability (SK-BR-3 [10]): 38.1 nM; EC50, CellTiter-Blue viability (MFM-223 [11]): 1010 nM; EC50, CellTiter-Glo (MDA-MB-231 [16]): 131 nM; EC50, CellTiter-Glo (HCC1937 [18]): 153 nM; EC50, CellTiter-Glo (BT-474): 128 nM
3 | CCOc1cc2ncc(C#N)c(Nc3ccc(OCc4ccccn4)c(Cl)c3)c2cc1NC(=O)/C=C/CN(C)C [Neratinib] |  |  |  |  |  |  | 135 |  |  | 106 |  |  | 93.8 |  | 926 | 539 | 7.56 | 95.2 | 2.49 | 91.2 | normalised viability (MDA-MB-231 [12]; 1 nM): 114%; normalised viability (MDA-MB-231 [12]; 100 nM): 131%; normalised viability (MDA-MB-468 [13]; 1 nM): 110%; normalised viability (MDA-MB-468 [13]; 100 nM): 114%; normalised viability (BT-549 [14]; 1 nM): 93.7%; normalised viability (BT-549 [14]; 100 nM): 82%; EC50, CellTiter-Glo (HDQ-P1): 309 nM; EC50, CellTiter-Glo (CAL-120 [22]): 412 nM; EC50, CellTiter-Glo (MCF-10A): 57.8 nM; EC50, CellTiter-Glo (MFM-223 [24]): 692 nM
4 | COc1ccc(C2=N[C@@H](c3ccc(Cl)cc3)[C@@H](c3ccc(Cl)cc3)N2C(=O)N2CCNC(=O)C2)c(OC(C)C)c1 [Nutlin-3] |  |  |  |  |  | 102 | 97.7 | 104 | 104 | 104 | 90.1 | 91.3 | 98.4 | 103 | 17.6 |  | 7190 | 7030 |  |  | EC50, CellTiter-Glo (DU-4475): 2950 nM
